According to ChEMBL document CHEMBL1137583 (Bioorg Med Chem Lett, 2007):

Legend:
[1] = target: Melanin-concentrating hormone receptor 1 (Homo sapiens, UniProt Q99705); assay: Inhibition of 125I-MCH binding to human MCH-R1 expressed in CHO cell membranes
[2] = AUC (0-6hr) in rats following 10 mg/kg peroral dose; format: ADME, organism-based; parameters: time < 6 hr, dose 10 mg/kg, route oral; conditions: rat, plasma, po
Mus musculus = assay: Inhibition of ex vivo MCH-R1 binding following 30 mg/kg peroral dose in mice after 6hr; format: functional; conditions: route oral

Sequence of Melanin-concentrating hormone receptor 1 (Q99705 whole entry): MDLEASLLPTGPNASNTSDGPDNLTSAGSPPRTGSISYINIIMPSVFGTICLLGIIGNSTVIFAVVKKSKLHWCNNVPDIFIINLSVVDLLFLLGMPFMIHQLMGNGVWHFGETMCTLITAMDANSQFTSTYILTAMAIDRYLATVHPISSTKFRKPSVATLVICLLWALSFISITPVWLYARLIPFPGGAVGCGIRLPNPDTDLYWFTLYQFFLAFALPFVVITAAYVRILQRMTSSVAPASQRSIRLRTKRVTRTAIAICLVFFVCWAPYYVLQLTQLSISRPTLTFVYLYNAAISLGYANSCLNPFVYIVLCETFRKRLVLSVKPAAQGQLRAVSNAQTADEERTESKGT

Compound | Ki [1] | AUC(0-t) at 6 h [2] | inhibition in vivo at 30 mg/kg (Mus musculus)
CN1CCN(CCCN(C(=O)Nc2ccc(F)c(Cl)c2)C2CCc3ccc(S(C)(=O)=O)cc3C2)CC1 (centres undefined) | 1300 nM |  | 
COc1ccc2c(c1)CCC(N(CCCN1CCN(C)CC1)C(=O)Nc1ccc(F)c(Cl)c1)C2 (centres undefined) | 190 nM |  | 
CN1CCN(CCCN(C(=O)Nc2ccc(F)c(Cl)c2)C2CCc3ccc(S(=O)(=O)N(C)C)cc3C2)CC1 (centres undefined) | 3000 nM |  | 
CN1CCN(CCCN(C(=O)Nc2ccc(F)c(Cl)c2)C2CCc3cc(C#N)ccc3C2)CC1 (centres undefined) | 340 nM |  | 
CC(=O)Nc1ccc2c(c1)CC(N(CCCN1CCN(C)CC1)C(=O)Nc1ccc(F)c(Cl)c1)CC2 (centres undefined) |  | 195 ng·h/mL | 23%
CN1CCN(CCCN(C(=O)Nc2ccc(F)c(Cl)c2)C2CCc3ccc(N)cc3C2)CC1 (centres undefined) | 260 nM |  | 
CCNC(=O)Nc1ccc2c(c1)CC(N(CCCN1CCN(C)CC1)C(=O)Nc1ccc(F)c(Cl)c1)CC2 (centres undefined) | 160 nM |  | 
CN1CCN(CCCN(C(=O)Nc2ccc(F)c(Cl)c2)[C@@H]2CC[C@]3(c4cccc(C#N)c4)C[C@@H]3C2)CC1 | 4 nM |  | 
CN1CCN(CCCN(C(=O)Nc2ccc(F)c(Cl)c2)C2CCc3ccccc3C2)CC1 (centres undefined) | 380 nM |  | 
CNS(=O)(=O)c1ccc2c(c1)CC(N(CCCN1CCN(C)CC1)C(=O)Nc1ccc(F)c(Cl)c1)CC2 (centres undefined) | 3000 nM |  | 
CN1CCN(CCCN(C(=O)Nc2ccc(F)c(Cl)c2)C2CCc3ccc(C#N)cc3C2)CC1 (centres undefined) | 8.5 nM | 642 ng·h/mL | 84%
